Results: patent US8865741B2, “Aminoindane compounds and use thereof in treating pain” (Asana Biosciences, LLC, priority 2011, dated 2014)
pIC50: −log10 of the molar value.

Experiments:
[1] = system: sodium current in DRG neurons; settings: co-applied with 1 μM capsaicin; whole-cell voltage clamp; read-out: in vitro apparent affinity (IC50) for blocking sodium current in DRG neurons; cited from earlier work
[2] = system: Male Sprague Dawley (SD) rats; assay: In vivo assay of mechanical nociception (rat pinch model, perisciatic injection); settings: perisciatic
[3] = system: rats; assay: Cutaneous anesthetic activity, cutaneous trunci muscle reflex (CTMR) pin-prick model; type: in vivo, rat; settings: 100 μL sub-cutaneous injection, 0.2%, with lidocaine 2% vs alone
Protocol: Rats were subjected to several days of acclimatization to the environment and the investigator prior to entering the study. About 24 hours before each experiment, the skin on the back of male rats was shaved using electronic clippers. The anesthetic action of test agents, following subcutaneous injection was determined using a “pin-prick” method as described by Khan (Khan et al., Anesthesiology, January 2002, 96(1): 109-116). Injection volumes were standardized at 100 μL, each injection caused a small wheal to develop—the boundary of which was marked with ink. The cutaneous trunci muscle reflex (CTMR) is a reflex movement of the skin due to twitches of the lateral thoracospinal muscles elicited by noxious stimulation of the dorsal cutaneous area. An 18-guage needle was used as the noxious stimulus; six stimuli were presented to an area of ‘normal’ skin to determine baseline sensitivity and this was then repeated in the area of the wheal. […] Data were represented as % maximal possible effect (MPE) where 100% indicates complete lack of response to each of the six needle presentations in the injected area. The extent of local anesthesia was assessed at regular intervals in order to generate efficacy-duration time plots.

[4] = system: sodium channel in hTRPV1-N1E115 cells; assay: FLIPR membrane potential assay of sodium channel response in hTRPV1-N1E115 cells, with (47° C.) or without (25° C.) heat activation of hTRPV1; type: cell-based
In short: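 hTRPV1-N1E115 cells were loaded with membrane potential blue dye, and compound was added. Duplicate plates were either heated to 47 °C for 10 min then held 30 min at ~25 °C, or kept 40 min at room temperature. Activity was attenuation of the FLIPR Tetra signal induced by 100 μM veratridine (final).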

[5] = system: rats; assay: Sciatic function assay (foot print score, motor function); type: in vivo, rat; settings: 200 μL of 0.2% with 2% lidocaine
Text: The sciatic function test is a simple observational gait analysis that provides a rudimentary assessment of hind-limb motor function according to a predetermined scoring scale based on a visual inspection of the animals foot prints as it ambulates on a flat surface (the basic principles of this test are provided in Lowdon (Journal of Neuroscience Methods 24(3), 1988, 279-281)). Following the injection of a test substance(s), the animal's hind paws are inked and it is then placed on a flat paper surface and permitted to ambulate freely. The footprint pattern left by the inked footpads on the paper is inspected and assigned a ‘foot print score’ based on a subjective assessment. […] A footprint score of 1-3 reflected that the weight bearing was primarily on the knees, that the ankle and toes were used sparingly, the toes were curled, and or the plantar surface of the paw is uplifted in a concave fashion. A footprint score of 4-6 reflects that the weight bearing is primarily on the knees and angle, with very little weight bearing on the toes. A footprint score of 6-10 reflects that the weight bearing is distributed over the knee, ankle, and toes and that there is an occasional sparing of the knee joints.

SMILES | pIC50 [1] | Average Time of Analgesia ([2]; test compound 0.5%, lidocaine 0%, total injection 100 μL) [h] | Average Time of Analgesia ([2]; test compound 0.5%, lidocaine 0%, total injection 200 μL) [h] | Average Time of Analgesia ([2]; test compound 0.5%, lidocaine 2%, total injection 100 μL) [h] | Average Time of Analgesia ([2]; test compound 0.5%, lidocaine 2%, total injection 200 μL) [h] | duration of analgesia, combination with lidocaine compared to compound alone [3] | hTRPV1-N1E Nav 0.1 mM (% inhibition) 25° C. ([4]; 0.1 mM, 25° C. (no heat activation of hTRPV1)) [%] | IC50 ([4]; 47° C., class symbols, read-out: hTRPV1-N1E IC50 (μM) 47° C.) [µM] | duration of marked motor deficit post injection ([5]; unilateral peri-sciatic injection) [h] | time of gradual return of foot print score to normal ([5]; remaining hours of assessment after the first 6 hours) [h] | Average Time of Analgesia ([2]; test compound 0.2%, lidocaine 2%, total injection 200 μL) [h]
CC[N+](CC)(CC)CC(=O)Nc1c(C)cccc1C [QX-314, reference compound] | 4.52 | 2 | 2 | 6 | 9 |  |  |  |  |  | 
Cc1ccccc1N(CC[C@H]1CCCC[N+]1(C)C)C1Cc2ccccc2C1.[Br-] [Example 43, (R)-2-[2-(Indan-2-yl-o-tolyl-amino)-ethyl]-1,1-dimethyl-piperidinium bromide] |  |  |  |  |  | extended duration of analgesia | 93.9 | 1 to 10 | 2 | ~20 | 28
